Results taken from PubChem BioAssay (NCI).
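96-well plates; 48 h exposure; 5 concentrations. Endpoints by linear interpolation between flanking doses. Not reached: highest tested concentration assigned. Here, GI50 denotes the concentration required for 50% inhibition of growth. TGI marks complete inhibition of growth.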

Legend:
Test in all cases: inhibition of tumour cell growth, NCI panel, 48 h
[1] = test system: UACC-257 melanoma
[2] = test system: UO-31 renal
[3] = test system: HL-60(TB) leukemia
[4] = test system: OVCAR-5 ovarian
[5] = test system: NCI-H226 lung
[6] = test system: CAKI-1 renal
[7] = test system: NCI-H23 lung
[8] = test system: TK-10 renal
[9] = test system: SK-OV-3 ovarian
[10] = test system: MALME-3M melanoma

SMILES | TGI [1] | TGI [2] | TGI [3] | TGI [4] | TGI [5] | TGI [6] | TGI [7] | TGI [8] | GI50 [2] | GI50 [3] | GI50 [9] | TGI [9] | GI50 [10] | TGI [10] | GI50 [4] | GI50 [5] | GI50 [7] | GI50 [8] | GI50 [1] | GI50 [6]
Cc1ccc(S(=O)(=O)c2ccc(NC(=O)SCCC(=O)O)cc2)cc1 | > 100 µM | > 100 µM | > 100 µM | > 100 µM | > 100 µM | > 100 µM | > 100 µM | > 100 µM | – | – | – | – | – | – | – | – | – | – | – | –
CC[C@@H]1[C@@H](C)O[C@@](O)([C@@H](C)[C@H](O)[C@H](C)[C@H]2OC(=O)/C=C/C=C/[C@H](C)[C@@H]([C@@H](C)[C@@H](O)[C@H](C)[C@@]3(O)C[C@@H](O[C@H]4C[C@@H](O)[C@H](O)C(C)O4)[C@H](CC)[C@@H](C)O3)OC(=O)/C=C/C=C/[C@@H]2C)C[C@H]1O[C@@H]1C[C@@H](O)[C@H](O)C(C)O1 (stereo not given in full) | – | 0.583 µM | 0.14 µM | 0.316 µM | 0.139 µM | – | 0.149 µM | 0.212 µM | 134 nM | 70.8 nM | 72 nM | 0.189 µM | 85.7 nM | 0.234 µM | 83.9 nM | 65.5 nM | 65.5 nM | 74.6 nM | – | –
CCOC(=O)C1SC(=Nc2cccc(Cl)c2C)N=C1C (stereo not given) | > 10 µM | 78.9 µM | 46.8 µM | 41.9 µM | 72.6 µM | – | > 10 µM | 73.3 µM | – | – | – | – | – | 42.4 µM | – | – | – | – | – | –
C[n+]1c(/C=C/c2c[nH]c3ccccc23)ccc2ccccc21 | 25.2 µM | 30.4 µM | 30.1 µM | 59.1 µM | 29.1 µM | 34.9 µM | – | – | 11300 nM | 12800 nM | 14700 nM | 90.8 µM | – | – | 18000 nM | 11000 nM | – | – | 12.2 µM | 14.6 µM
O=S(=O)([O-])c1ccc(N=Cc2ccccc2[O-])cc1.O=S(=O)([O-])c1ccc(N=Cc2ccccc2[O-])cc1.[O]=[U+2]=[O] | > 100 µM | > 100 µM | – | > 100 µM | > 100 µM | – | > 100 µM | 71.7 µM | > 100000 nM | – | > 100000 nM | > 100 µM | > 100000 nM | > 100 µM | > 100000 nM | > 100000 nM | > 100000 nM | 30700 nM | > 100 µM | –
CCN(CC)CCNc1ccc(C)c2sc3cc(Cl)ccc3c(=O)c12 | 3.42 µM | 2.69 µM | 3.71 µM | 3.1 µM | 3.58 µM | – | 3.47 µM | 3.77 µM | 1320 nM | 1810 nM | 1770 nM | 4.88 µM | 1840 nM | 3.61 µM | 1610 nM | 1740 nM | 1700 nM | 2200 nM | 1.92 µM | –
COc1cc(/C=C2\C[C@H]3[C@@H]4CC=C5C[C@@H](O)CC[C@]5(C)[C@H]4CC[C@]3(C)[C@H]2O)ccc1OCCN1CCCC1 | 19.8 µM | 22.4 µM | 19 µM | 19.8 µM | 22.3 µM | 22.1 µM | 26 µM | 24.3 µM | 10300 nM | 9960 nM | – | – | – | – | 8570 nM | 9550 nM | 11500 nM | 11700 nM | 9.89 µM | 10.2 µM
C=CC(=O)NCCSCCCOC1(C(=O)O)CC(O)C(NC(C)=O)C(C(O)C(O)CO)O1 (stereo not given) | > 100 µM | > 100 µM | > 100 µM | > 100 µM | > 100 µM | – | > 100 µM | > 100 µM | – | – | – | > 100 µM | – | > 100 µM | – | – | – | – | – | –
COC(=O)CCC(NC(=S)N/N=C/c1ccccn1)C(=O)OC (stereo not given) | > 100 µM | > 100 µM | > 100 µM | > 100 µM | > 100 µM | – | > 100 µM | > 100 µM | – | – | – | > 100 µM | – | > 100 µM | – | – | – | – | – | –
O=c1cc(-c2ccccc2)oc2ccc(OC/C(=N/O)c3ccccc3)cc12 | > 50 µM | > 50 µM | > 50 µM | > 50 µM | > 50 µM | 16.2 µM | > 50 µM | > 50 µM | 4340 nM | 2120 nM | 1100 nM | 16.2 µM | – | – | 43800 nM | 15900 nM | 2400 nM | > 50000 nM | 5.12 µM | 1.79 µM
CO/C=C/C(=O)c1cc2cnc3c(=N)cc(NC(=O)C(C)C)c([nH]1)c23 | 0.862 µM | 0.323 µM | 0.295 µM | 7.41 µM | 1.26 µM | – | 1.83 µM | 0.258 µM | 16.9 nM | 32 nM | 146 nM | 0.873 µM | – | – | 120 nM | 106 nM | 43.2 nM | 26.6 nM | 0.0901 µM | –
CSc1ccc(-c2ccccc(=O)c2O)cc1 | > 100 µM | 5.2 µM | 1.55 µM | > 100 µM | 37 µM | – | 28.3 µM | > 100 µM | 351 nM | 283 nM | 551 nM | > 100 µM | 2410 nM | > 100 µM | 1640 nM | 1680 nM | 688 nM | 593 nM | 0.749 µM | –
COc1ccc(OC(C)=O)c2c1CCC=CC2=O | 31.8 µM | 30.9 µM | 6.7 µM | 31 µM | 33.7 µM | – | 32.8 µM | 32.2 µM | – | – | – | 31.2 µM | – | 44.1 µM | – | – | – | – | – | –
